From PMC9963373, “Rationalizing the Binding Modes of PET Radiotracers Targeting the Norepinephrine Transporter” (Pharmaceutics, 2023)

Key:
NET [1] = biological target: T1, NET (Homo sapiens, UniProt P23975); assay: Competitive cellular uptake assay against [3H]NE uptake in SK-N-SH cells
Source text: It should be noted that the NET affinities of the tested compounds are expressed as IC50 in the current manuscript instead of the dissociation constant Kd. First, because all the tested compounds are substrates of NET that can be transported, they share the same binding site. […] Therefore, the IC50 value in the current study is considered equal to Kd without additional correction.
Competitive Cellular Uptake Studies
were cultivated according to the instructions from the supplier (Sigma-Aldrich Chemie GmbH,
Munich, Germany). One day before the competitive assay, the cells were seeded in 24-well plates
at a density of 1 × 10^5 cells/well and incubated in 0.5 mL of Eagle’s minimum essential medium
(EMEM) at 37 °C overnight. The medium was removed, and the cells were washed with 0.5 mL of
Dulbecco’s modified Eagle’s medium (DMEM) with low glucose containing 0.1% bovine serum
albumin (BSA). After washing, DMEM/0.1% BSA (300 µL) was added along with 50 µL of pargyline
presence of pyrogallol (20 µM final concentration, catechol-O-methyl transferase inhibitor) [1] and
pargyline (100 µM final concentration, monoamine oxidase inhibitor) [2], 50 µL of working solution
GBq/mmol, NET678250UC, PerkinElmer LAS GmbH, Germany) in DMEM/0.1% BSA together with
50 µL of the test compounds (desipramine, MIBG, HED and cold re ferences, each at different
incubation volume. The addition of the inhibitors of both enzymes involved in the natural
time. The plates were incubated at 37°C for 60 min. The cells were then washed with ice-cold PBS
(2 × 0.5 mL) followed by the addition of NaOH solution (0.1 N, 500 μL) and collection of the cell
lysates. Cell lysates (140 µL) were mixed with 1.8 mL of scintillation cocktail (Hionic-Fluor,
PerkinElmer, Rodgau, Germany) and radioactivity was measured in a liquid scintillation analyzer
All experimental data are presented as mean
± SD, with individual numbers measured in triplicate in experiment performed on 2–3 separate

[2] = Rat biodistribution study, heart-to-blood ratio of fluorine-18-labeled tracers; assay type: in vivo; settings: male Wistar rats, 10 min after tail vein administration of fluorine-18-labeled tracer (1-2 MBq), n = 3-6
Source text: (§1) The experimental protocols were approved by the Animal Ethics Committee of the National Cerebral and Cardiovascular Center, Research Institute, Osaka, Japan (approval number 18019) and conducted in strict accordance with the Guide for the Care and Use of Laboratory Animals published by the US National Institutes of Health and the ARRIVE guidelines. Anesthesia was induced in male Wistar rats (n = 3–6 for each radiotracer, weighing 200–250 g on average, Charles River Laboratories, Research Models and Services, Germany GmbH, Sulzfeld, Germany) by using 5% isoflurane and maintained during the whole experiment with 2% isoflurane. Large animal PET imaging was performed on rhesus macaques (n = 2, weighing 3.9–4.2 kg, Primate Research Institute Kyoto University, Aichi, Japan). The induction of anesthesia in non-human primates (NHPs) was conducted by intramuscular injection of ketamine (1.5 mg/kg) and xylazine (0.6 mg/kg) to allow animal preparation and handling. After a tracheal cannula was inserted, 1.5% sevoflurane (SEVOFLURANE Inhalation Solution, Pfizer Japan Inc., Tokyo, Japan) vaporized with 100% oxygen was inhaled, and the tidal volume and respiratory rate of the ventilator were monitored and maintained in the normal range throughout the imaging sessions with an anesthesia workstation (Apollo®, Drägerwerk AG & Co. KGaA, Lübeck, Germany).
(§2) Preliminary PET imaging of [^18F]AF78(F) in rodents (n = 2) and NHPs (n = 2) was obtained according to a previously described protocol. For the rat biodistribution studies (n = 3–6 for each tracer), radiotracers (1–2 MBq) were administered via the tail vein. Ten minutes after radiotracer administration, the animals were euthanized. The organs of interest were harvested for tissue counting with a γ-counter (2480 Automatic Gamma Counter WIZARD^2, PerkinElmer LAS GmbH, Rodgau, Germany). Following weight and decay correction of the tissue counts, the heart-to-blood (H/B) ratios were calculated. A detailed experimental description can be found in the Supplementary Material. […]
PET Imaging and Biodistribution Study […]
Barbara, CA, US). For the rat biodistribution studies, radiotracers (1–2 MBq) were administered via the tail vein. Ten minutes after radiotracer administration, the animals were euthanized. The organs of interest were harvested for tissue counting with a γ-counter (2480 Automatic Gamma Counter WIZARD2, PerkinElmer, Rodgau, Germany). Following weight and decay correction of the tissue counts, the heart-to-blood ratios were calculated. NHPs (n = 2) were anesthetized during the imaging study and studied on a clinical PET scanner (PCA-2000A, Toshiba Medical Systems Corporation, Tochigi, Japan). After a 5 min transmission scan and an intravenous injection of the […]
and 300 s × 11) was started. […]

[3] = PET/CT imaging in healthy rats; assay type: in vivo; settings: n = 2, 10-20 MBq via tail vein
Experimental: as §2
days. IC50 values were determined using nonlinear regression log(inhibitor) vs. normalized response in GraphPad Prism 8.4.3.
PET Imaging and Biodistribution Study
PET imaging of [18F]AF78(F) in rodents (n = 2) was obtained using a dedicated small animal PET system (microPET Focus 120, Siemens, Germany). […]
initiated with acquisition in list-mode format. […] Following weight and decay correction of the tissue counts, the heart-to-blood ratios were calculated. […]
injected 10 min before tracer administration, after which the PET scan started immediately. […] The obtained PET images were analyzed with the public domain tool AMIDE imaging software (A Medical Imaging Data Examiner, version 1.01).

NET [4] = assay: PET imaging in non-human primates with and without desipramine blockade; assay type: in vivo, rhesus macaques; settings: NHPs, n = 2; specificity proven by desipramine 1 mg/kg i.v. 10 min before tracer
Source text: as §1, with “Large animal PET imaging was performed on rhesus macaques (n = 2, weighing 3.9–4.2 kg, Primate Research Institute Kyoto University, Aichi, Japan). The induction of anesthesia in non-human primates (NHPs) was conducted by intramuscular injection of ketamine (1.5 mg/kg) and xylazine (0.6 mg/kg) to allow animal preparation and handling.” left out
Preliminary PET imaging of [^18F]AF78(F) in rodents (n = 2) and NHPs (n = 2) was obtained according to a previously described protocol. […] Following weight and decay correction of the tissue counts, the heart-to-blood (H/B) ratios were calculated. […]

NET [5] = biological target: T1, NET; design: Human neuroblastoma cell line SK-N-SH from metastatic bone marrow stably expressing NET; host or cells: SK-N-SH human neuroblastoma cells; method as in PMID 23306137; settings: NE-NET; read-out: Michaelis constant Km; cited from earlier work

T1 sequence (P23975 whole entry): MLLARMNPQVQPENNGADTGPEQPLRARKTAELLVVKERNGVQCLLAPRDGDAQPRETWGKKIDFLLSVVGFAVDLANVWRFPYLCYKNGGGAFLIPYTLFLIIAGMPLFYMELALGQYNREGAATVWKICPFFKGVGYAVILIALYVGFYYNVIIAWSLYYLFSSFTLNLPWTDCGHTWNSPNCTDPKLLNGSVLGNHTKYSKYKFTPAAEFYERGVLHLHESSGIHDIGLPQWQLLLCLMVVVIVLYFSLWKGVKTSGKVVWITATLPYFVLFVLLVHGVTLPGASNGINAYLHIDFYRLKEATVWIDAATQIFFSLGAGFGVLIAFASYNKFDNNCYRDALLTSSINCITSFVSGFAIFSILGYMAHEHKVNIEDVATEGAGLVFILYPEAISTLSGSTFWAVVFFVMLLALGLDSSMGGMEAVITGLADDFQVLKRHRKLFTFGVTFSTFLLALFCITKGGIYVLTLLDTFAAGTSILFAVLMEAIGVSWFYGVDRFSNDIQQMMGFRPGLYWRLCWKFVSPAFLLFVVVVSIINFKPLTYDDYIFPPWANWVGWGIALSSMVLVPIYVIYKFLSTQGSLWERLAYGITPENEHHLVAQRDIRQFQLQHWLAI

SMILES	IC50 (NET [1])	heart-to-blood (H/B) ratio [2]	further results
N=C(N)NCCc1ccc(OCCCF)c(Br)c1 [AF78(Br)]	3.32 ± 0.72 µM	8.7 ± 1.4	
N=C(N)NCCc1ccc(OCCCF)c(Cl)c1 [AF78(Cl)]	0.94 ± 0.28 µM	10.4 ± 0.4	
N=C(N)NCCc1ccc(OCCCF)c(F)c1 [AF78(F)]		13.2 ± 1.2	systemic distribution of the radiotracer (PET/CT) [3]: homogenous distribution throughout the left ventricular wall; uptake in the heart (PET) (NET [4]): distinct NET-mediated uptake in the heart
N=C(N)NCCc1ccc(OCCCF)cc1 [AF78(H)]	4.17 ± 0.92 µM		
N=C(N)NCCc1ccc(OCCCF)c(I)c1 [AF78(I)]	6.51 ± 3.32 µM	5.9 ± 0.4	fold less potent than AF78(F) (NET [1]; ratio of NET affinities in the competitive cellular uptake assay): 15 fold
N=C(N)NCCc1ccc(OCCCF)c(O)c1 [AF78(OH)]	22.7 ± 3.58 µM		
NC[C@H](O)c1ccc(O)c(O)c1 [NE, norepinephrine]			Km (NET [5]): 0.28 ± 0.03 µM
